Active and inactive are the calls of the source. The rule behind the calls is not given here. Bounds are passed on as bounds.

This note sets out measurements from ChEMBL document CHEMBL3856230, “Structure-Activity Relationships of Di-2-pyridylketone, 2-Benzoylpyridine, and 2-Acetylpyridine Thiosemicarbazones for Overcoming Pgp-Mediated Drug Resistance” (J Med Chem, 2016).

Experiment [1] in a line: (§1) Antiproliferative activity against human KB3-1 cells after 24 hrs by MTT assay. Format: functional, cell-based. The conditions noted are these: KB 3-1, 24 h.
A short description of experiment [2]: (§2) Antiproliferative activity against human KB3-1 cells after 24 hrs in presence of P-gp inhibitor elacridar by MTT assay. Format: functional, cell-based. The settings on record: KB 3-1, 24 h. For orientation: Formazan colour is commonly taken as a measure of viable cells.
A short description of experiment [3]: Antiproliferative activity against human KBV1 cells over expressing P-gp after 24 hrs by MTT assay. The experiment is classed as functional, cell-based. The conditions noted are these: KB-V1, 24 h.
Experiment [4] can be described thus: (§3) Antiproliferative activity against human KBV1 cells over expressing P-gp after 24 hrs in presence of P-gp inhibitor elacridar by MTT assay. The experiment is classed as functional, cell-based. The settings on record: KB-V1, 24 h.
The species entered for experiment [5] is Homo sapiens. The experiment can be described thus: Substrate activity at P-gp (unknown origin) in P-gp enriched membranes assessed as increase in ATPase activity at 50 uM in presence of Mg2-ATP after 40 mins by luciferase reporter gen assay relative to control. The experiment is classed as cell membranes. On the technique in general: Reporter assays use an easily measured gene product as a stand-in for the process of interest.

Experiment [6] is filed under the species Homo sapiens. Briefly: Inhibition of P-gp (unknown origin) in P-gp enriched membranes assessed as […] at 100 uM in presence of Mg2-ATP after 40 mins by luciferase reporter gen assay relative to control. Format: cell membranes.
Experiment [7] deals with KB 3-1. The experiment is described as §1. Format: functional, cell-based.
For experiment [8], the system named is KB 3-1. The experiment is described as §2. Format: functional, cell-based.
For experiment [9], the system named is KB-V1. Described as §3. The experiment is classed as functional, cell-based.
A short description of experiment [10]: Selectivity ratio of IC50 for human KB31 cells to IC50 for human KBV1 cells over expressing P-gp. Format: functional.
The subject of experiment [11] is KBV1. Briefly: Induction of P-gp-mediated lysosomal membrane permeabilization in human KBV1 cells over expressing P-gp assessed as cathepsin D release from lysosome to cytosol at 25 uM after 24 hrs by TexasRed staining based immunofluorescence microscopic analysis. The experiment is classed as cell-based.
Experiment [12] concerns KBV1. The experiment can be described thus: Induction of P-gp-mediated lysosomal membrane permeabilization in human KBV1 cells over expressing P-gp assessed as increase in LAMP2 fluorescence at 25 uM after 24 hrs by TexasRed staining based immunofluorescence microscopic analysis. The experiment is classed as cell-based.
For experiment [13], the system named is KB-V1. The experiment can be described thus: Induction of copper-dependent lysosomal membrane permeabilization in human KBV1 cells over expressing P-gp assessed as decrease in cathepsin D and LAMP2 lysosomal colocalization at 25 uM after 24 hrs by TexasRed staining based immunofluorescence microscopic analysis. The experiment is classed as functional, cell-based.

Experiment [14] has as its system KB-V1. Briefly: Induction of oxidative stress-dependent lysosomal membrane permeabilization in human KBV1 cells over expressing P-gp assessed as decrease in cathepsin D and LAMP2 lysosomal colocalization at 25 uM after 24 hrs by TexasRed staining based immunofluorescence microscopic analysis. Format: functional, cell-based.
Experiment [15] relates to KBV1. Briefly: Induction of P-gp-mediated lysosomal membrane permeabilization in human KBV1 cells over expressing P-gp assessed as cathepsin D release from lysosome to cytosol at 10 uM after 24 hrs by TexasRed staining based immunofluorescence microscopic analysis. The experiment is classed as cell-based.
In experiment [16] the test system is KBV1. Briefly: Induction of P-gp-mediated lysosomal membrane permeabilization in human KBV1 cells over expressing P-gp assessed as increase in LAMP2 fluorescence at 10 uM after 24 hrs by TexasRed staining based immunofluorescence microscopic analysis. The experiment is classed as cell-based.
Experiment [17] relates to KB-V1. Briefly: Induction of copper-dependent lysosomal membrane permeabilization in human KBV1 cells over expressing P-gp assessed as decrease in cathepsin D and LAMP2 lysosomal colocalization at 10 uM after 24 hrs by TexasRed staining based immunofluorescence microscopic analysis. Format: functional, cell-based.
The subject of experiment [18] is KB-V1. The experiment can be described thus: Induction of oxidative stress-dependent lysosomal membrane permeabilization in human KBV1 cells over expressing P-gp assessed as decrease in cathepsin D and LAMP2 lysosomal colocalization at 10 uM after 24 hrs by TexasRed staining based immunofluorescence microscopic analysis. The experiment is classed as functional, cell-based.

For the compound `NC(=S)N/N=C/c1ncccc1N` [TRIAPINE], the IC50 in [1], in [2], in experiment [3] and in experiment [4] was above 800 µM in each case. Further, in the experiment filed under Homo sapiens [5], the fold change (FC) was 4.6.
SODIUM ORTHOVANAD: the fold change (FC) in the experiment filed under Homo sapiens [6] was 11.9.
As to `C/C(=N/NC(=S)N(C)C)c1ccccn1`, the result with KB 3-1 [7], in the experiment with KB 3-1 [8] and with KB-V1 [9] was Active. Besides, the “Ratio IC50” value in experiment [10] came to 2.1. Besides, the fold change (FC) in the experiment filed under Homo sapiens [5] came out at 5.1.
In the case of `CN(C(=S)NN=C(c1ccccn1)c1ccccn1)C1CCCCC1`, the outcome in the experiment on KB 3-1 [7], in the experiment on KB 3-1 [8], in the experiment with KBV1 [11], with KBV1 [12], in the experiment with KB-V1 [13] and in the experiment with KB-V1 [14] was Active. In addition, the “Ratio IC50” value in [10] was found to be 8.1. Moreover, the fold change (FC) in the experiment filed under Homo sapiens [5] was determined as 7.4.
`CN(/N=C(\c1ccccc1)c1ccccn1)C(N)=S`: the half-inhibitory concentration (IC50) in experiment [1], in [2], in experiment [3] and in experiment [4] was above 800 µM throughout. Moreover, the fold change (FC) in the experiment filed under Homo sapiens [5] is 5.2.
For `CN(C)C(=S)NN=C(c1ccccn1)c1ccccn1`, the outcome with KB 3-1 [7], in the experiment with KB 3-1 [8], with KBV1 [15], in the experiment with KBV1 [16], with KB-V1 [17] and with KB-V1 [18] was Active. Moreover, in the experiment filed under Homo sapiens [5], the fold change (FC) turned out to be 6.6.
For the compound `CN(C)C(=S)N/N=C(/c1ccccc1)c1ccccn1`, the result with KB 3-1 [7], in the experiment on KB 3-1 [8], in the experiment on KBV1 [11], with KBV1 [12], with KB-V1 [13] and in the experiment with KB-V1 [14] was Active. The “Ratio IC50” value in experiment [10] is on record as 13.2. The fold change (FC) in the experiment filed under Homo sapiens [5] is 7.9.
